We go through five molecules from patent US6379651B1, “Oral-topical dosage forms for delivering antibacterials/antibiotics to oral cavity to eradicate H. pylori as a concomitant treatment for peptic ulcers and other gastro-intestinal diseases” (priority 1995, dated 2002).

In data set [1] the test system is Treponema denticola. Briefly: In vitro MIC, Treponema denticola. Format: cell-based.
Data set [2] relates to Helicobacter pylori. Briefly: In vitro MIC, Helicobacter pylori. Format: cell-based.
Data set [3] deals with Campylobacter rectus. Briefly: In vitro MIC, Campylobacter rectus. It counts as cell-based.
For data set [4] the following is noted: in vivo; cited from earlier work.
The test system of data set [5] is rat mesentery culture. The data set can be described thus: In vitro rat mesentery culture wound closure model. It counts as cell-based. The note with it: for concentrations of growth factors EGF and FGF: 10 mcg/mL to 1,000 mcg/mL in medium, 2% fetal calf serum; for wound closure: 10 mcg/mL to 1,000 mcg/mL, 24-hour, 48-hour and 72-hour, compared to the placebo. The source says:
This tissue culture model is useful for gaining insights into growth factor interactions and wound healing.

A short description of data set [6]: Freeze-injured skin graft model. Format: in vivo. The note with it: for wound healing rates compared to placebo: Doses of 10 to 1000 mcg/mL; for wound healing in cryoinjured grafts: in vivo.
The nature of data set [7]: Diabetic mouse wound healing model. It counts as in vivo. The following applies: formulations of 10 mcg/ml to 1,000 mcg/ml. The method, then: Further, wound healing potential of the above bismuth compounds is evaluated using a diabetic mouse wound healing model (Matuszewska et al., Pharmaceutical Research 11(1):65-71 (1994), incorporated herein by reference).
The subject of data set [8] is H. pylori. The note with it: in vivo; cited from earlier work.
The subject of data set [9] is H. pylori. The note with it: cited from earlier work.
For data set [10] the following is noted: compared with placebo, cimetidine and ranitidine; cited from earlier work.
The procedure of data set [11]:
Artificial saliva was used (Table 9).
Artificial saliva is used (Table 9).
The test saliva is prepared by dissolving 0.500 g of the antibiotic or antibacterial agent in a 100 mL of the above artificial saliva. […] The denture materials that are exposed to artificial saliva containing the agent or placebo are evaluated.

The conditions of data set [12]: in vivo; cited from earlier work. The source holds these as a separate data set.

For “beta-D-fructofuranosyl-oktakis (hydrogen sulfate) bismuth complex [Bismuth Sucrose Sulfate]”, the figures for the “minimum effective concentrations (MICs)” value in [1], in data set [2] and in data set [3] were 32 µg/mL, 16 µg/mL and >256 µg/mL, respectively.

In the case of `CC[C@H]1OC(=O)[C@H](C)[C@@H](O[C@H]2C[C@@](C)(OC)[C@@H](O)[C@H](C)O2)[C@H](C)[C@@H](O[C@@H]2O[C@H](C)C[C@H](N(C)C)[C@H]2O)[C@](C)(OC)C[C@@H](C)C(=O)[C@H](C)[C@@H](O)[C@]1(C)O` [Clarithromycin], the “secretion in the saliva” value in [4] is “secreted in the saliva”.

With “L-dihydro ascorbyl-tetrakis (hydrogen sulfate) bismuth complex [Bismuth Ascorbyl Sulfate]”, in [5], the “concentrations of growth factors EGF and FGF” value is listed as “Significantly higher”; the wound closure entry was “significantly faster wound closure rate and complete closure”. Moreover, in data set [6], the “wound healing rates compared to placebo” value is recorded as “significant increase” and the “wound healing in cryoinjured grafts” value is listed as “stimulates wound healing in cryoinjured grafts in a dose-related fashion”. Also, the “minimum effective concentrations (MICs)” value in data set [1] was 16 µg/mL. In data set [2], the “minimum effective concentrations (MICs)” value stood at 8 µg/mL. The “wound healing compared to placebo” value in [7] is listed as “heal faster”. Further, in data set [3], the “minimum effective concentrations (MICs)” value is 256 µg/mL.

As for `Cc1ncc([N+](=O)[O-])n1CCO` [metronidazole], the “eradication rate for H. pylori” value in data set [8] is on record as 5%.

Take colloidal bismuth subcitrate [CBS]: in data set [5], the “concentrations of growth factors EGF and FGF” value was “Significantly higher”; the wound closure result is “significantly faster wound closure rate and complete closure”. Moreover, the “minimum inhibitory concentration (MIC) against H. pylori” value in [9] is 8 µg/mL. Moreover, the “MIC against H. pylori, range” value in data set [9] (range) is 4 to 32 µg/mL. In addition, in data set [6], the “wound healing rates compared to placebo” value is reported as “significant increase” and the “wound healing in cryoinjured grafts” value is “stimulates wound healing in cryoinjured grafts in a dose-related fashion”. Besides, the “minimum effective concentrations (MICs)” value in data set [1] is 32 µg/mL. In addition, the “minimum effective concentrations (MICs)” value in data set [2] stood at 2 µg/mL. The “relapse rates of duodenal ulcers” value in data set [10] is on record as “significantly lower relapse rates”. Besides, the “wound healing compared to placebo” value in [7] is listed as “heal faster”. For the same molecule, in data set [4], the “absorption from the GI” value is on record as “not absorbed significantly” and the “secretion in the saliva” value is “produces no salivary concentrations”. Further, in data set [3], the “minimum effective concentrations (MICs)” value worked out at 256 µg/mL. Moreover, in [11], the “staining, discoloration or changes in texture of natural tooth and denture materials” value is given as “did not cause any staining, discoloration, or changes in texture”. Further, the “steady-state blood levels unlikely to cause any neurotoxicity” value in data set [12] is 50-100.
